These results are taken from patent US20210121482A1, “WITHANOLIDES FOR THE TREATMENT OF CACHEXIA” (University of Louisville Research Foundation, Inc., priority 2019, published 2021).

Test [1] concerns Caspase 1, NLRP3, IL-1β, IL-18, HO-1. As to the kind of experiment: IHC of NLRP3 inflammasome proteins in tumor samples. Format: in vivo, mice. Here is the method:
Immunohistochemistry of Tumor Tissue: For the detection of various proteins, 10 μm thick sections were made from the midsection of tumor samples. A hydrophobic boundary was drawn around the sections and then they were fixed in 3.7% formaldehyde solution for 10 minutes. The slides were washed three times with 1×PBS for 5 minutes each. The sections were then blocked in 2% BSA in PBS for 30 minutes. The sections were then incubated with primary antibodies (1:100 dilution) overnight in a humidity chamber at 4° C. The sections were then washed three times with 1×PBS for 5 minutes. The slides were incubated in appropriate secondary antibodies (1:2000 dilution) for 45-60 minutes. Sections were counterstained with DAPI (1:2500 dilution) for 5 minutes to visualize nuclei. Slides were then washed twice in 1×PBS for 5 minutes, and then mounted for visualization. Nonspecific background staining was determined by performing the above protocol with omitting the inclusion of the primary antibodies. Refer to Table 2 for a complete list of antibodies utilized.

The subject of test [2] is TA, GA and QF muscles. As to the kind of experiment: Muscle mass and TA myofiber CSA (Example 2). It counts as in vivo, mice. The text has this: Histology and Morphometric Analysis of Skeletal Muscle: Select muscles of the lower limb of the mice were isolated, flash frozen in liquid nitrogen, mounted in O.C.T. embedding medium, and then sectioned using a microtome cryostat. To assess tissue morphology, 10 μm thick transverse sections were cut from the mid-belly of the tibialis anterior (TA) and then subjected to Hematoxylin and Eosin (H&E) staining. Images of H&E-stained TA muscle sections were quantified using Fiji software (National Institute of Health software) to measure myofiber cross-sectional area (CSA). Skeletal myofiber CSA was calculated by analyzing ˜500-700 myofibers per muscle as previously described (32).
Post-mortem, select muscles of the lower extremities, including tibialis anterior (TA), gastrocnemius (GA), and quadriceps femoris (QF), were collected and weighed to detect changes in muscle mass, with results shown in FIG. 14A-14C, respectively. Muscle weights were normalized by the initial body weight (I.B.W.) to account for differences in the size of the mouse/muscle at baseline, while excluding the confounding effect of tumor burden on body weight.

Test [3] deals with satellite cells. As to the kind of experiment: Satellite cell IHC (Pax7, MyoD, Laminin) in TA muscle. It counts as in vivo, mice. Here is the method: Due to the role of WFA in inhibiting canonical NF-κ B signaling and the effect ovarian cancer has on this signaling pathway, WFA and the xenograft model were tested to measure induction or activation of satellite cells. The TA muscle was subjected to immunofluorescent immunohistochemical (IHC) staining for Pax7 (a marker of satellite cells), MyoD (a marker of myogenic differentiation), and Laminin (a marker of the basal lamina) (FIG. 15A). As accurate IHC detection of satellite cells can be challenging, individual color channels were compared against negative control slides to optimize visualization of satellite cells, minimize nonspecific background staining, and rule out false positives (Pax7^+/DAPI− cells) (37).
Initially, the number of satellite cells per field (normalized by the number of Laminin+ myofibers) was quantified to assess whether the model of ovarian cancer or WFA treatment affected the satellite cell population at large. […] There was a significant increase in the amount of Pax7+ cells in the tumor-bearing vehicle-treated group (0.34±0.01) compared to the tumor-free vehicle-treated and tumor-free WFA 2 mg/kg groups, although there was a significant reduction compared to the tumor-free WFA 4 mg/kg group (p<0.0001 for all comparisons). […] A small, but statistically significant decrease in the tumor-bearing WFA 4 mg/kg group was observed compared to the tumor-bearing vehicle-treated group (p=0.0004). […] Due to the systemic nature of WFA treatment, the tumor-specific uptake of WFA may have diminished the effect observed on skeletal muscle with respect to satellite cell activation in the tumor-bearing animals compared to the tumor-free animals.
After assessing changes in the gross number of satellite cells, the myogenic status was assessed to determine if the satellite cells were functionally activated. Satellite cells that are Pax7+/MyoD− are self-renewing or returning to quiescence, whereas satellite cells that are Pax7+/MyoD+ have committed to the myogenic lineage and will facilitate in muscle repair (6, 38). […] It was not feasible to enumerate the population of Pax7−/MyoD+ cells in response to the xenografted cancer or WFA treatment due to experimental limitations. However, distinct populations of Pax7+/MyoD− and Pax7+/MyoD+ cells were present (FIGS. 15C and 15D).

For test [4], the system named is poly-ubiquitinated proteins. As to the kind of experiment: Immunoblot for poly-ubiquitinated proteins. It counts as in vivo, mice. To be noted: WFA treatment, 2 and 4 mg/kg. Here is the method: Protein Extraction and Western Blotting: Quadriceps femoris (QF) samples were homogenized in chilled RIPA buffer (Sigma) supplemented with a Complete Mini Protease Inhibitor tablet (Roche Molecular Biochemicals, Indianapolis, Ind.). Tissue lysates were centrifuged at 10,000 RPM and the supernatants were collected. Protein concentration for each sample was determined using the Bradford reagent method (Bio-Rad), according to manufacturer's instructions. Protein lysates (50 μg) were separated on 10% SDS-PAGE gels at 100 volts for 2 h. The proteins were transferred to nitrocellulose membranes at 100 volts for 90 minutes. The membranes were blocked with 5% non-fat milk in Tris Buffered Saline supplemented with Tween-20 (0.5%; TBS-T) for 30-60 minutes. The membranes were then washed 3 times with TBS-T for 5 minutes. The membranes were then incubated with primary antibody at 4° C. overnight. The membranes were washed 3 times with TBS-T for 5 minutes each followed by incubation in TBS-T containing horseradish peroxidase conjugated secondary antibody (1:2000 dilution) for 1 h. The membranes were rinsed 3 times with TBS-T for 5 minutes each. Visualization of immunoreactive bands was enhanced using chemiluminescence reagents (Sigma). […]

Test [5] relates to SKOV3. The settings on record: SKOV3 cells; cited from earlier work.

Structures are written as SMILES.

In the case of `CC1=C(CO)C(=O)O[C@@H]([C@@H](C)[C@H]2CC[C@H]3[C@@H]4C[C@H]5O[C@]56[C@@H](O)C=CC(=O)[C@]6(C)[C@H]4CC[C@]23C)C1` [WFA, (4β,5β,6β,22R)-4,27-Dihydroxy-5,6:22,26-diepoxyergosta-2,24-diene-1,26-dione], the “expression of IL-1β, IL-18 and HO-1 in tumor (IHC)” value in test [1] (2 mg/kg) was “drastically lowered the expression of IL-1β and IL-18 and increased the expression of HO-1”; in test [1] (6 mg/kg), “intermediate expression of all three proteins”. For the same compound, in test [1] (2 and 6 mg/kg, vs vehicle treated group), the “Caspase 1 and NLRP3 staining in tumor (IHC)” value was “reduction in Caspase 1 and NLRP3 staining”. Moreover, the “normalized wet weight of TA and GA muscles” value in test [2] (tumor-bearing, 2 and 4 mg/kg, vs vehicle-treated) was “statistically significant increase in normalized wet weight of the TA and GA muscles”. In addition, the “average myofibrillar cross-sectional area (CSA) in TA muscle” value in test [2] (tumor-bearing, WFA 2 mg/kg) is 1629.72±94.96 μm2; in test [2] (tumor-bearing, WFA 4 mg/kg), 1748.13±68.90 μm2; in test [2] (tumor-free, WFA 2 mg/kg), 1916.39±85.72 μm2; in test [2] (tumor-free, WFA 4 mg/kg), 1904.98±80.50 μm^2. Further, the “normalized weight of TA, GA and QF muscles” value in test [2] (tumor-free, 4 mg/kg, vs vehicle-treated, normalized by initial body weight) is “significant increase in normalized weight of the TA, GA, and QF muscles”. Moreover, the “Pax7+ cells normalized by number of Laminin+ myofibers” value is 0.26±0.01 in test [3] (tumor-bearing, WFA 2 mg/kg); 0.31±0.01 in test [3] (tumor-bearing, WFA 4 mg/kg); 0.28±0.02 in test [3] (tumor-free, WFA 2 mg/kg); 0.42±0.01 in test [3] (tumor-free, WFA 4 mg/kg). The “proportion of differentiating satellite cells (Pax7+/MyoD+)” value in test [3] (tumor-bearing, WFA 2 mg/kg) is reported as 48.85±1.63%; in test [3] (tumor-bearing, WFA 4 mg/kg) it was 52.79±1.99%; in test [3] (tumor-free, WFA 2 mg/kg), 60.73±2.28%; in test [3] (tumor-free, WFA 4 mg/kg) it was 61.37±1.49%. Besides, the “proportion of proliferating satellite cells (Pax7+/MyoD−)” value in test [3] (tumor-bearing, WFA 2 mg/kg) was found to be 51.15±1.63%; in test [3] (tumor-bearing, WFA 4 mg/kg), 47.21±1.99%; in test [3] (tumor-free, WFA 2 mg/kg), 39.27±2.28%; in test [3] (tumor-free, WFA 4 mg/kg) it was 38.63±1.49%. Besides, in test [4], the “pan-ubiquitination of proteins (immunoblot)” value is on record as “reduced in response to WFA treatment”. Moreover, the “cell cycle arrest and apoptosis” value in test [5] is “induces cell cycle arrest and the induction of apoptosis”.
